From the NIST ThermoML archive (doi:10.1016/j.jct.2015.04.027)
± gives the expanded uncertainty stated by the source.

Legend:
[1] = 100 kPa, Liquid; for viscosity: Falling or rolling sphere viscometry; for mass density: Vibrating tube method
[2] = xn = mol fraction of the nth substance listed; details: 100 kPa, Liquid, x2 = 0; for viscosity: Falling or rolling sphere viscometry; for mass density: Vibrating tube method

Row | viscosity ([1]; 293.15 K) | mass density ([1]; 293.15 K) | viscosity ([1]; 298.15 K) | mass density ([1]; 298.15 K) | viscosity ([1]; 303.15 K) | mass density ([1]; 303.15 K) | viscosity ([1]; 308.15 K) | mass density ([1]; 308.15 K) | viscosity ([1]; 313.15 K) | mass density ([1]; 313.15 K) | viscosity ([2]; 293.15 K) | mass density ([2]; 293.15 K) | viscosity ([2]; 298.15 K) | mass density ([2]; 298.15 K) | viscosity ([2]; 303.15 K) | mass density ([2]; 303.15 K) | viscosity ([2]; 308.15 K) | mass density ([2]; 308.15 K) | viscosity ([2]; 313.15 K) | mass density ([2]; 313.15 K) | SMILES
1 | 1.186 ± 0.025 mPa·s | 789.51 ± 0.17 kg/m3 | 1.083 ± 0.023 mPa·s | 785.4 ± 0.17 kg/m3 | 0.987 ± 0.021 mPa·s | 780.83 ± 0.17 kg/m3 | 0.903 ± 0.019 mPa·s | 776.48 ± 0.17 kg/m3 | 0.829 ± 0.018 mPa·s | 772.15 ± 0.17 kg/m3 | – | – | – | – | – | – | – | – | – | – | CCO [ethanol]
2 | 2.217 ± 0.047 mPa·s | 803.75 ± 0.16 kg/m3 | 1.955 ± 0.042 mPa·s | 799.71 ± 0.17 kg/m3 | 1.736 ± 0.037 mPa·s | 795.65 ± 0.17 kg/m3 | 1.55 ± 0.033 mPa·s | 791.56 ± 0.17 kg/m3 | 1.389 ± 0.03 mPa·s | 787.42 ± 0.17 kg/m3 | – | – | – | – | – | – | – | – | – | – | CCCO [propan-1-ol]
3 | 0.597 ± 0.013 mPa·s | 791.35 ± 0.17 kg/m3 | 0.559 ± 0.012 mPa·s | 786.67 ± 0.18 kg/m3 | 0.518 ± 0.011 mPa·s | 781.94 ± 0.18 kg/m3 | 0.493 ± 0.011 mPa·s | 777.2 ± 0.18 kg/m3 | 0.466 ± 0.01 mPa·s | 772.42 ± 0.18 kg/m3 | – | – | – | – | – | – | – | – | – | – | CO [methanol]
4 | – | – | – | – | – | – | – | – | – | – | 2.217 ± 0.047 mPa·s | 803.75 ± 0.16 kg/m3 | 1.955 ± 0.042 mPa·s | 799.71 ± 0.17 kg/m3 | 1.736 ± 0.037 mPa·s | 795.65 ± 0.17 kg/m3 | 1.55 ± 0.033 mPa·s | 791.56 ± 0.17 kg/m3 | 1.389 ± 0.03 mPa·s | 787.42 ± 0.17 kg/m3 | CCCO [propan-1-ol] + CN(C)C(=[NH2+])N(C)C.c1c[n-]cn1
5 | – | – | – | – | – | – | – | – | – | – | 0.597 ± 0.013 mPa·s | 791.35 ± 0.17 kg/m3 | 0.559 ± 0.012 mPa·s | 786.67 ± 0.18 kg/m3 | 0.518 ± 0.011 mPa·s | 781.94 ± 0.18 kg/m3 | 0.493 ± 0.011 mPa·s | 777.2 ± 0.18 kg/m3 | 0.466 ± 0.01 mPa·s | 772.42 ± 0.18 kg/m3 | CO [methanol] + CN(C)C(=[NH2+])N(C)C.c1c[n-]cn1
6 | – | – | – | – | – | – | – | – | – | – | 1.186 ± 0.025 mPa·s | 789.51 ± 0.17 kg/m3 | 1.083 ± 0.023 mPa·s | 785.4 ± 0.17 kg/m3 | 0.987 ± 0.021 mPa·s | 780.83 ± 0.17 kg/m3 | 0.903 ± 0.019 mPa·s | 776.48 ± 0.17 kg/m3 | 0.829 ± 0.018 mPa·s | 772.15 ± 0.17 kg/m3 | CCO [ethanol] + CN(C)C(=[NH2+])N(C)C.c1c[n-]cn1
7 | – | – | – | – | – | – | – | – | – | – | 2.918 ± 0.062 mPa·s | 809.72 ± 0.16 kg/m3 | 2.566 ± 0.055 mPa·s | 805.92 ± 0.16 kg/m3 | 2.272 ± 0.049 mPa·s | 802.08 ± 0.16 kg/m3 | 2.024 ± 0.043 mPa·s | 798.21 ± 0.16 kg/m3 | 1.81 ± 0.039 mPa·s | 794.3 ± 0.17 kg/m3 | CCCCO [butan-1-ol] + CN(C)C(=[NH2+])N(C)C.c1c[n-]cn1
8 | 2.918 ± 0.062 mPa·s | 809.72 ± 0.16 kg/m3 | 2.566 ± 0.055 mPa·s | 805.92 ± 0.16 kg/m3 | 2.272 ± 0.049 mPa·s | 802.08 ± 0.16 kg/m3 | 2.024 ± 0.043 mPa·s | 798.21 ± 0.16 kg/m3 | 1.81 ± 0.039 mPa·s | 794.3 ± 0.17 kg/m3 | – | – | – | – | – | – | – | – | – | – | CCCCO [butan-1-ol]
9 | 8.952 ± 0.2 mPa·s | 997.25 ± 0.25 kg/m3 | 7.287 ± 0.16 mPa·s | 992.8 ± 0.25 kg/m3 | 6.044 ± 0.13 mPa·s | 988.35 ± 0.25 kg/m3 | 5.097 ± 0.11 mPa·s | 983.9 ± 0.25 kg/m3 | 4.358 ± 0.096 mPa·s | 979.46 ± 0.25 kg/m3 | – | – | – | – | – | – | – | – | – | – | CN(C)C(=[NH2+])N(C)C.c1c[n-]cn1 [1,1,3,3-tetramethylguanidinium imidazol-1-ide]
